Values quoted from earlier work as cited in patent US9663462B2, “Anti-parasitic methods and compositions utilizing diindolylmethane-related indoles” (BioResponse, L.L.C., priority 2006, dated 2017).

Legend:
[1] = test system: estrogen-dependent and independent breast cancer cells; conditions: isolated DIM, cell culture
[2] = test system: chemically induced forms of breast cancer; conditions: orally administered, animals
[3] = test system: rainbow trout; conditions: in vivo
[4] = test system: Human Papilloma Virus (HPV) oncogene altered cervical cancer cell lines
[5] = test system: Mitogen Activated Protein Kinase (MAPK) cell signaling pathway; conditions: cell culture
[6] = target: Leishmania donovani topoisomerase I (LdTOPILS); conditions: read-out: IC50, inhibition of Leishmania donovani topoisomerase I (LdTOPILS)
[7] = metabolic half life of DIM
[8] = once formed from I3C
[9] = test system: NFκB signaling pathway; conditions: breast cancer cells
[10] = test system: breast cancer cells

c1ccc2c(Cc3c[nH]c4ccccc34)c[nH]c2c1 [DIM, 3,3′-diindolylmethane]
apoptosis promoting effects [1]: apoptosis promoting effects
growth of chemically induced breast cancer [2]: inhibits the growth
estrogenic activity [3]: estrogenic
induction of apoptosis [4]: induce apoptosis
activation of MAPK cell signaling pathway [5]: activate
IC50 [6]: 1200 nM
half-life [7]: 2 to 7 h
stability in acid [8]: stable
activation of the NFκB signaling pathway [9]: reduce activation
estrogenic activity [10]: estrogenic
